Laboratory results as given in the supplement of paper PMC10331698.
± gives the standard deviation of the averaged measurements.

Key:
Assay in all cases: level (log10 ratio to DMSO vehicle control); higher = higher biomarker level / cell amount than vehicle control
[1] = compound: C=C(C)C(=O)OCCC(F)(F)C(F)(F)C(F)(F)C(F)(F)C(F)(F)C(F)(F)C(F)(F)C(F)(F)F [8:2 Fluorotelomer methacrylate] (in DMSO)
Protocol: (§1)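 BioMAP Diversity Plus panel of 12 human primary cell co-culture systems (3C, 4H, LPS, SAg, BT, BF4T, BE3C, CASM3C, HDF3CGF, KF3CT, MyoF, Mphg). Compounds were added 1 h before stimulation and left for 24 h (MyoF 48 h; BT 72 h for soluble read-outs or 6 d for IgG). Biomarkers were read by ELISA, cytotoxicity by SRB, PBMC viability and proliferation by Alamar Blue. Each well value was divided by the mean of 8 DMSO control wells on the same plate and log10 transformed; duplicate blinded samples were tested at 4 concentrations.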

[2] = compound: O=C(O)C(F)(F)OC(F)(F)C(F)(F)OC(F)(F)C(F)(F)OC(F)(F)C(F)(F)C(F)(F)C(F)(F)F [Perfluoro-3,6,9-trioxatridecanoic acid] (in DMSO); details: 6700 nM
Protocol: as §1

[3] = compound: C[C@@H]1C[C@H]2[C@@H]3CCC4=CC(=O)C=C[C@]4(C)[C@@]3(F)[C@@H](O)C[C@]2(C)[C@@]1(O)C(=O)COP(=O)(O)O [Dexamethasone sodium phosphate] (in DMSO)
Protocol: as §1

[4] = compound: NS(=O)(=O)C(F)(F)C(F)(F)C(F)(F)C(F)(F)C(F)(F)C(F)(F)C(F)(F)C(F)(F)F [Perfluorooctanesulfonamide] (in DMSO)
Protocol: as §1

[5] = compound: CN(C(=O)C(F)(F)C(F)(F)C(F)(F)F)[Si](C)(C)C [N-Methyl-N-trimethylsilylheptafluorobutyramide] (in DMSO)
Protocol: as §1

[6] = compound: O=C(O)C(F)(F)C(F)(F)C(F)(F)C(F)(F)C(F)(F)C(F)(F)C(F)(F)C(F)(F)C(F)(F)C(F)(F)F [Perfluoroundecanoic acid] (in DMSO); details: 6700 nM
Protocol: as §1

[7] = compound: O=S(=O)(O)C(F)(F)C(F)(F)C(F)(F)C(F)(F)C(F)(F)C(F)(F)C(F)(F)F [Perfluoroheptanesulfonic acid] (in DMSO)
Protocol: as §1

[8] = compound: CO[Si](C)(CCC(F)(F)C(F)(F)C(F)(F)C(F)(F)C(F)(F)C(F)(F)F)OC [Dimethoxymethyl((perfluorohexyl)ethyl)silane] (in DMSO)
Protocol: as §1

| Test System | level (log10) ([1]; 6700 nM) | level (log10) ([1]; 20000 nM) | level (log10) [2] | level (log10) ([3]; 1500 nM) | level (log10) ([3]; 4400 nM) | level (log10) ([3]; 13000 nM) | level (log10) ([3]; 40000 nM) | level (log10) ([4]; 6700 nM) | level (log10) ([4]; 20000 nM) | level (log10) ([5]; 6700 nM) | level (log10) ([5]; 20000 nM) | level (log10) ([5]; 60000 nM) | level (log10) [6] | level (log10) ([7]; 1500 nM) | level (log10) ([7]; 4400 nM) | level (log10) ([7]; 13000 nM) | level (log10) ([7]; 40000 nM) | level (log10) ([8]; 6700 nM) | level (log10) ([8]; 20000 nM) |
| --- | --- | --- | --- | --- | --- | --- | --- | --- | --- | --- | --- | --- | --- | --- | --- | --- | --- | --- | --- |
| CASM3C:IL-6 | -0.0315 ± 0.022 | 0.0105 ± 0.084 | -0.0055 ± 0.061 | -0.166 ± 0.096 | -0.232 ± 0.023 | -0.246 ± 0.015 | -0.189 ± 0.092 | -0.0275 ± 0.018 | -0.023 ± 0.014 | -0.0165 ± 0.0035 | -0.0105 ± 0.0035 | 0.0035 ± 0.049 | 0.0025 ± 0.0092 | 0.021 ± 0.05 | -0.029 ± 0.0014 | -0.0305 ± 0.026 | 0.011 ± 0.088 | -0.0225 ± 0.00071 | 0.013 ± 0.051 |
| HDF3CGF:SRB | -0.021 ± 0.055 | -0.0015 ± 0.046 | -0.107 ± 0.0021 | 0.0165 ± 0.0064 | 0.0285 ± 0.025 | 0.0515 ± 0.03 | 0.0415 ± 0.07 | -0.028 ± 0.055 | 0.0615 ± 0.019 | -0.048 ± 0.0028 | -0.0015 ± 0.056 | 0.0205 ± 0.086 | 0.0395 ± 0.011 | -0.042 ± 0.028 | -0.045 ± 0.011 | -0.0065 ± 0.015 | 0.035 ± 0.1 | 0.0315 ± 0.025 | 0.0455 ± 0.036 |
| MyoF:Decorin | -0.0145 ± 0.0021 | -0.004 ± 0.0057 | 0.033 ± 0.037 | 0.016 ± 0.011 | 0.0385 ± 0.012 | 0.034 ± 0.033 | 0.039 ± 0.042 | 0.0265 ± 0.053 | 0.031 ± 0.037 | 0.009 ± 0.011 | 0.0095 ± 0.018 | 0.03 ± 0.042 | -0.026 ± 0.035 | -0.0075 ± 0.015 | -0.006 ± 0.0042 | 0.009 ± 0.0014 | 0.0615 ± 0.011 | -0.0005 ± 0.0021 | 0.029 ± 0.034 |
| BE3C:PAI-I | 0.001 ± 0.041 | -0.013 ± 0.076 | -0.526 ± 0.018 | 0.0905 ± 0.025 | 0.109 ± 0.016 | 0.098 ± 0.028 | 0.0635 ± 0.054 | -0.194 ± 0.03 | -0.202 ± 0.016 | -0.0045 ± 0.047 | -0.013 ± 0.017 | -0.012 ± 0.02 | -0.292 ± 0.023 | 0.016 ± 0.044 | 0.047 ± 0.057 | 0.0385 ± 0.06 | 0.033 ± 0.078 | 0.009 ± 0.033 | -0.0245 ± 0.023 |
| lMphg:CD69 | -0.041 ± 0.037 | -0.041 | -0.056 ± 0.083 | 0.039 ± 0.014 | -0.007 ± 0.017 | -0.0155 ± 0.029 | -0.0585 ± 0.022 | -0.0435 ± 0.052 | -0.11 ± 0.037 | 0.0015 ± 0.005 | -0.0075 ± 0.035 | -0.039 ± 0.045 | -0.048 ± 0.083 | -0.014 ± 0.055 | -0.008 ± 0.027 | -0.0145 ± 0.00071 | -0.0155 ± 0.018 | -0.0205 ± 0.018 | -0.0435 ± 0.037 |
| 3C:CD62E/E-Selectin | -0.024 ± 0.0085 | -0.0225 ± 0.005 | -0.0355 ± 0.0092 | -0.0055 ± 0.011 | -0.024 ± 0.024 | -0.005 ± 0.024 | 0.0005 ± 0.0078 | -0.006 ± 0.02 | 0.043 ± 0.011 | -0.0115 ± 0.015 | -0.007 ± 0.0042 | 0.0015 ± 0.037 | -0.0135 ± 0.04 | -0.01 ± 0.021 | -0.018 | -0.024 ± 0.017 | 0.005 ± 0.0014 | -0.023 ± 0.0042 | -0.0235 ± 0.005 |
| KF3CT:SRB | -0.003 | 0.004 ± 0.0042 | -0.0355 ± 0.0035 | -0.0025 ± 0.00071 | -0.0035 ± 0.0035 | -0.0005 ± 0.005 | 0.0055 ± 0.012 | -0.0035 ± 0.015 | -0.0455 ± 0.029 | -0.004 ± 0.0014 | -0.0095 ± 0.015 | -0.003 ± 0.013 | -0.0105 ± 0.0021 | 0.0015 ± 0.005 | -0.0015 ± 0.0064 | -0.0005 ± 0.00071 | -0.0005 ± 0.005 | -0.0045 ± 0.0064 | -0.004 ± 0.0028 |
| CASM3C:CD141/Thrombomodulin | -0.0195 ± 0.042 | 0.041 ± 0.082 | -0.0345 ± 0.0064 | 0.107 ± 0.11 | 0.0895 ± 0.067 | 0.073 ± 0.041 | 0.123 ± 0.011 | 0 ± 0.0085 | 0.0505 ± 0.0078 | -0.0195 ± 0.025 | -0.027 ± 0.011 | -0.011 ± 0.0042 | -0.06 ± 0.12 | 0.019 ± 0.037 | -0.019 ± 0.028 | -0.0185 ± 0.022 | 0.038 ± 0.078 | -0.008 ± 0.0057 | -0.015 ± 0.021 |
| BE3C:tPA | -0.0125 ± 0.067 | -0.036 ± 0.082 | -0.452 ± 0.005 | -0.149 ± 0.029 | -0.175 ± 0.013 | -0.219 ± 0.062 | -0.197 ± 0.0035 | 0.0025 ± 0.035 | -0.058 ± 0.055 | -0.018 ± 0.025 | -0.0275 ± 0.0064 | -0.0195 ± 0.011 | 0.003 ± 0.0028 | 0.023 ± 0.041 | 0.0415 ± 0.073 | 0.066 ± 0.1 | 0.0595 ± 0.086 | 0.0005 ± 0.026 | -0.026 ± 0.037 |
| CASM3C:CD106/VCAM-1 | -0.006 ± 0.0014 | -0.0145 ± 0.036 | -0.035 ± 0.024 | 0.117 ± 0.06 | 0.11 ± 0.049 | 0.0875 ± 0.016 | 0.076 ± 0.054 | -0.0185 ± 0.0021 | -0.0405 ± 0.037 | -0.007 ± 0.0042 | -0.027 ± 0.0057 | -0.0175 ± 0.013 | -0.032 ± 0.034 | 0.0085 ± 0.057 | 0.0125 ± 0.0035 | 0.0055 ± 0.05 | -0.0355 ± 0.0035 | -0.0265 ± 0.012 | -0.0155 ± 0.005 |
| CASM3C:M-CSF | -0.0325 ± 0.019 | -0.019 ± 0.067 | 0.0215 ± 0.013 | 0.157 ± 0.031 | 0.155 ± 0.023 | 0.141 ± 0.0085 | 0.151 ± 0.0092 | 0.022 | 0.04 ± 0.0099 | -0.011 ± 0.0028 | -0.018 ± 0.0042 | 0.0145 ± 0.036 | 0.019 ± 0.0085 | -0.0215 ± 0.0021 | -0.0305 ± 0.0035 | -0.039 ± 0.028 | -0.02 ± 0.047 | -0.012 ± 0.013 | 0.0045 ± 0.043 |
| HDF3CGF:CXCL9/MIG | -0.024 ± 0.0042 | -0.0275 ± 0.016 | -0.196 ± 0.0035 | 0.042 ± 0.037 | 0.067 ± 0.018 | 0.0555 ± 0.029 | 0.0435 ± 0.042 | -0.203 ± 0.011 | -0.761 ± 0.11 | -0.0105 ± 0.0035 | -0.004 ± 0.0057 | -0.009 ± 0.018 | -0.0645 ± 0.005 | -0.0075 ± 0.019 | -0.008 ± 0.013 | -0.0275 ± 0.011 | -0.0505 ± 0.042 | -0.0005 ± 0.005 | -0.005 ± 0.035 |
| MyoF:CXCL8/IL-8 | 0.0095 ± 0.025 | 0.004 ± 0.0085 | 0.056 ± 0.0057 | -0.0725 ± 0.011 | -0.074 ± 0.013 | -0.1 ± 0.011 | -0.104 ± 0.0057 | -0.04 ± 0.031 | -0.013 ± 0.0085 | 0.0005 ± 0.025 | 0.003 ± 0.0042 | 0.009 ± 0.027 | 0.0245 ± 0.0092 | 0.0195 ± 0.011 | 0.022 ± 0.011 | 0.026 | 0.032 ± 0.023 | -0.016 ± 0.0014 | 0.0085 ± 0.036 |
| HDF3CGF:Collagen III | -0.032 ± 0.042 | -0.0325 ± 0.067 | -0.236 ± 0.028 | -0.0625 ± 0.12 | -0.048 ± 0.052 | -0.079 ± 0.05 | -0.0675 ± 0.056 | -0.0345 ± 0.012 | -0.449 ± 0.019 | 0.0005 ± 0.00071 | -0.0175 ± 0.005 | -0.0675 ± 0.037 | -0.049 ± 0.05 | -0.004 ± 0.018 | -0.0385 ± 0.053 | -0.052 ± 0.05 | -0.0205 ± 0.033 | -0.022 ± 0.035 | -0.0165 ± 0.07 |
